# Measurements reported in patent US9963445B2, “Chemical compounds” (SYNGENTA PARTICIPATIONS AG, priority 2013, dated 2018).
# Assays:
# Format in all cases: in vivo
# Amaranthus retroflexus [1] = assay: Post-emergence herbicidal activity, glasshouse pot test; parameters: key: 0 = no damage to plant, 5 = total damage to plant; conditions: Application post-emergence, rate 1000 g/ha, evaluated after 13 days
# Procedure: (§1) Seeds of a variety of test species were sown in standard soil in pots. After 8 days cultivation (post-emergence) under controlled conditions in a glasshouse (at 24/16° C., day/night; 14 hours light; 65% humidity), the plants were sprayed with an aqueous spray solution derived from the formulation of the technical active ingredient in acetone/water (50:50) solution containing 0.5% Tween 20 (polyoxyethelyene sorbitan monolaurate, CAS RN 9005-64-5). The test plants were then grown in a glasshouse under controlled conditions (at 24/16° C., day/night; 14 hours light; 65% humidity) and watered twice daily. After 13 days, the test was evaluated (5=total damage to plant; 0=no damage to plant).
# (§2) ABUTH=Abutilon theophrasti; SOLNI=Solanum nigrum; AMARE=Amaranthus retroflexus; SETFA=Setaria faberi; ALOMY=Alopecurus myosuroides; ECHCG=Echinochloa crus-galli, ZEAMX=zea mays.
# Setaria faberi [2] = assay: as above; parameters: key: 0 = no damage to plant, 5 = total damage to plant; conditions: Application post-emergence, rate 1000 g/ha, evaluated after 13 days
# Procedure: as §1, §2
# Alopecurus myosuroides [3] = assay: as above; parameters: key: 0 = no damage to plant, 5 = total damage to plant; conditions: Application post-emergence, rate 1000 g/ha, evaluated after 13 days
# Procedure: as §1, §2
# zea mays [4] = assay: as above; parameters: key: 0 = no damage to plant, 5 = total damage to plant; conditions: Application post-emergence, rate 1000 g/ha, evaluated after 13 days
# Procedure: as §1, §2
# Echinochloa crus-galli [5] = assay: as above; parameters: key: 0 = no damage to plant, 5 = total damage to plant; conditions: Application post-emergence, rate 1000 g/ha, evaluated after 13 days
# Procedure: as §1, §2
# Abutilon theophrasti [6] = assay: as above; parameters: key: 0 = no damage to plant, 5 = total damage to plant; conditions: Application post-emergence, rate 1000 g/ha, evaluated after 13 days
# Procedure: as §1, §2
# Amaranthus retroflexus [7] = assay: Pre-emergence herbicidal activity, glasshouse pot test; conditions: pre-emergence spray, rate 1000 g/ha, evaluated after 13 days, scale 0-5
# Procedure: as §1, with “After” for “After 8 days”, “for one day (pre-emergence)” for “(post-emergence)”
# as §2
# Setaria faberi [8] = assay: as above; conditions: pre-emergence spray, rate 1000 g/ha, evaluated after 13 days, scale 0-5
# Procedure: as §1, with “After” for “After 8 days”, “for one day (pre-emergence)” for “(post-emergence)”
# as §2
# Alopecurus myosuroides [9] = assay: as above; conditions: pre-emergence spray, rate 1000 g/ha, evaluated after 13 days, scale 0-5
# Procedure: as §1, with “After” for “After 8 days”, “for one day (pre-emergence)” for “(post-emergence)”
# as §2
# zea mays [10] = assay: as above; conditions: pre-emergence spray, rate 1000 g/ha, evaluated after 13 days, scale 0-5
# Procedure: as §1, with “After” for “After 8 days”, “for one day (pre-emergence)” for “(post-emergence)”
# as §2
# Echinochloa crus-galli [11] = assay: as above; conditions: pre-emergence spray, rate 1000 g/ha, evaluated after 13 days, scale 0-5
# Procedure: as §1, with “After” for “After 8 days”, “for one day (pre-emergence)” for “(post-emergence)”
# as §2
# Abutilon theophrasti [12] = assay: as above; conditions: pre-emergence spray, rate 1000 g/ha, evaluated after 13 days, scale 0-5
# Procedure: as §1, with “After” for “After 8 days”, “for one day (pre-emergence)” for “(post-emergence)”
# as §2
Structure (SMILES),AMARE herbicidal damage score (Amaranthus retroflexus [1]),SETFA herbicidal damage score (Setaria faberi [2]),ALOMY herbicidal damage score (Alopecurus myosuroides [3]),ZEAMX herbicidal damage score (zea mays [4]),ECHCG herbicidal damage score (Echinochloa crus-galli [5]),ABUTH herbicidal damage score (Abutilon theophrasti [6]),"AMARE damage score, application pre-emergence (Amaranthus retroflexus [7])","SETFA damage score, application pre-emergence (Setaria faberi [8])","ALOMY damage score, application pre-emergence (Alopecurus myosuroides [9])","ZEAMX damage score, application pre-emergence (zea mays [10])","ECHCG damage score, application pre-emergence (Echinochloa crus-galli [11])","ABUTH damage score, application pre-emergence (Abutilon theophrasti [12])"
CC1=C(Cl)C(=O)N(c2cc(F)ccn2)C1O (stereo not drawn) [AF39],5,4,4,2,5,5,4,3,3,1,4,4
CC1=C(Cl)C(=O)N(c2cc(C(C)F)ccn2)C1O (stereo not drawn) [AF40],5,4,3,5,5,5,5,5,2,2,4,5
CC1=C(Cl)C(=O)N(c2cc(C)ccn2)C1O (stereo not drawn) [AF41],5,5,5,4,5,5,5,4,4,3,4,5
COC(=O)c1cnc(N2C(=O)C(Cl)=C(C)C2O)cc1C(F)(F)F (stereo not drawn) [AF42],4,5,3,1,4,4,0,0,0,0,0,0
CC1=C(Cl)C(=O)N(c2cc(C(F)(F)F)c(C(F)(F)F)cn2)C1O (stereo not drawn) [AF43],1,5,2,0,5,1,0,0,0,0,0,0
COc1ccnc(N2C(=O)C(Cl)=C(C)C2O)c1 (stereo not drawn) [AF44],1,1,3,2,4,3,0,0,0,0,0,0
CC1=C(Cl)C(=O)N(c2cc(C)c([N+](=O)[O-])cn2)C1O (stereo not drawn) [AF48],5,3,2,0,3,0,0,0,1,0,1,0
CC1=C(Cl)C(=O)N(c2cc(C#N)ccn2)C1O (stereo not drawn) [AF50],1,5,5,2,5,5,0,1,2,0,0,0
CC1=C(Cl)C(=O)N(c2cc([S+](C)[O-])ccn2)C1O (stereo not drawn) [AF51],0,3,3,0,3,4,0,0,0,0,0,0
CC1=C(Cl)C(=O)N(c2ccc([S+](C)[O-])cn2)C1O (stereo not drawn) [AF53],1,3,3,0,3,3,1,0,2,1,1,0
CC1=C(Cl)C(=O)N(c2ccc(S(C)(=O)=O)cn2)C1O (stereo not drawn) [AF54],0,1,2,0,3,2,0,0,0,2,1,0
COc1ccc(N2C(=O)C(Cl)=C(C)C2O)nc1 (stereo not drawn) [AF56],3,4,4,2,4,5,1,0,0,0,0,2
CC1=C(Cl)C(=O)N(c2cc(C(F)(F)F)c(Cl)cn2)C1O (stereo not drawn) [AF58],5,5,4,3,5,5,5,3,3,0,4,2
COc1ccc(-c2ccc(N3C(=O)C(Cl)=C(C)C3O)nc2)cc1 (stereo not drawn) [AF59],3,2,1,0,1,4,3,0,0,0,1,2
CC1=C(Cl)C(=O)N(c2ccc(C#N)cn2)C1O (stereo not drawn) [AF60],0,1,1,0,1,0,0,0,0,0,0,0
